{"source": "paper PMC11061149", "about": "“Protein mimetic 2D FAST rescues alpha synuclein aggregation mediated early and post disease Parkinson’s phenotypes” (Nature Communications, 2024)", "key": {"[1]": {"system": "HEK293 cells stably expressing αS-A53T-YFP", "assay": "HEK cells transfected with αS aggregated with or without ligand: inclusions (ProteoStat dye, confocal)", "assay_type": "cell-based, human", "method": "The aggregation of endogenous monomeric αS-A53T-YFP into fibers can be detected by the intracellular fluorescent puncta (Fig. 3a, + αS). A solution of 100 μM αS was aggregated in the absence and presence of NS132 at an equimolar ratio for four days. The resulting solutions of αS fibers (5 μM in monomeric αS, ±NS132) were introduced to HEK cells in the presence of Lipofectamine 3000 for 24 h. In contrast to the control (no fibers), we observed a significant number of fluorescent inclusions in the presence of αS fibers (Fig. 3a, white arrows, +αS), which was a consequence of the templating of endogenous monomeric αS-A53T-YFP by the exogenously added αS fibers. […] Moreover, we observed the colocalization of an adaptor protein, p62, in the aggresome of αS inclusions in HEK cells (Fig. 3b, +αS, red),[51]–[54]. […] The autophagy machinery regulates many vital cellular processes and its impairment due to αS aggregation can lead to PD and other neurodegenerative disorders[51]–[54]. […] We also quantified the inclusions (αS-A53T-YFP) using a ProteoStat dye-based high throughput 96-well plate reader-based assay recently developed in our lab[24]. The ProteoStat dye-based intensity of HEK cells treated with αS fibers was ~4-5 fold higher than the control (no fibers) (Fig. 3c, +αS, black). […] Therefore, we used HEK cells to test the cytotoxicity of the aggregated solution of αS in the absence and presence of NS132 (Fig. 3d). The viability of HEK cells was measured using the (3-(4,5-dimethylthiazol-2-yl)-2,5-diphenyltetrazolium bromide) (MTT) reduction based assay.\nThe Lipofectamine solution was made fresh for each transfection to avoid possible denaturation of reagents in a stored stock solution. For each transfection protocol, the total volume of lipofectamine solution required is equivalent to 30% of the total volume of αS/lipofectamine solution needed. […]\nThis assay was performed based on a previous protocol with slight modifications. […] The resulting cell pellets were then homogenized, transferred into an autoclaved 1.7 mL microcentrifuge tube, and counted to normalize the data. […]"}, "UA196 worms": {"system": "UA196 worms", "assay": "ROS level in post-disease onset PD model of UA196 worms", "assay_type": "in vivo, C. elegans", "method": "The UA196 worms were bleached, and the eggs were incubated on PLATE 1. On day two, the UA196 worms were transferred (using M9 buffer) on PLATE 2 (without ligand). On day five, 100 UA196 worms were used to determine the ROS level (as described earlier) prior to the treatment with ligands on day five. In tandem, ~200 worms were transferred to PLATE 3 (with ligand) using M9 buffer (10-20 µL) and the plate was incubated at 20 °C in the incubator. On day 8, 100 UA196 worms from PLATE 2 (without ligand) and PLATE 3 (with ligand) were used to determine the ROS level (as described earlier). For each condition, three biological replicates were performed, and 3 technical replicates were used for each biological replicate. […] (n = 3 independent experiments and each n consisted of 3 technical replicates)."}}, "note": "Values joined by “and” are separate entries in the source; they are usually repeats but may differ in a detail not shown here. Identical values can stand only once."}
{"compound": "Cc1ccc(NC(=O)c2ccc(NC(=O)c3ccc([N+](=O)[O-])c(NCCc4c[nH]c5ccccc45)n3)c(NCC3CCCCC3)n2)c(OCC(=O)O)n1", "note": "[NS132]", "values": [{"measurement": "intracellular αS-A53T-YFP inclusions (confocal), in words", "setting": "[1]; HEK293 cells transfected with αS aggregated in the presence of NS132", "result": "significant decrease"}, {"measurement": "ProteoStat intensity versus control (no fibers), in words", "setting": "[1]; HEK cells + 5 μM αS aggregated with equimolar NS132", "result": "did not observe a significant difference"}, {"measurement": "ProteoStat dye intensity (raw), individual experiments", "setting": "[1]; HEK cells + 5 μM αS fibers aggregated with equimolar NS132, 24 h", "result": "538 and 599 and 420 and 486 and 619 and 476 and 665 and 696 and 519 and 621 and 647 and 693"}, {"measurement": "ROS level in UA196 worms, post-disease model, in words", "setting": "UA196 worms; 50 μM ligand on day five, ROS on day eight", "result": "very effective in decreasing the ROS level"}, {"measurement": "ROS level (dye fluorescence), Average", "setting": "UA196 worms; UA196+NS132, Day 5 (same value as UA196 control)", "result": 1262.3}, {"measurement": "ROS level (dye fluorescence), Average", "setting": "UA196 worms; UA196+NS132, Day 8", "result": 733.721}]}
